The NIST ThermoML archive (doi:10.1016/j.fluid.2014.09.014)

Assay: refractive index (other wavelength) (dimensionless); xn = mol fraction of the nth substance listed
Settings: 101 kPa, Liquid, Standard Abbe refractometry

CC(C)OC(C)C [diisopropyl ether] + CC(C)O
refractive index
Settings	Wavelength=404.7 nm	Wavelength=435.8 nm	Wavelength=486.1 nm	Wavelength=546.1 nm	Wavelength=587.6 nm	Wavelength=589.3 nm	Wavelength=632.8 nm	Wavelength=644 nm	Wavelength=706.5 nm
293.5 K, x1 = 0.0277	1.388	1.38493	1.38147	1.3786	1.37708	1.37703	1.37572	1.37541	1.37391
293.5 K, x1 = 0.0507	1.3879	1.38485	1.38137	1.3785	1.37699	1.37693	1.37562	1.37531	1.37381
293.5 K, x1 = 0.051	1.38799	1.38492	1.38146	1.37859	1.37708	1.37702	1.3757	1.37539	1.37389
293.5 K, x1 = 0.0717	1.38774	1.38468	1.38121	1.37834	1.37683	1.37678	1.37545	1.37515	1.37366
293.5 K, x1 = 0.1528	1.38719	1.38413	1.38066	1.37779	1.37629	1.37623	1.37492	1.37461	1.37313
293.5 K, x1 = 0.1553	1.38719	1.38413	1.38066	1.37779	1.37629	1.37623	1.37492	1.37461	1.37313
293.5 K, x1 = 0.1938	1.38688	1.38381	1.38034	1.37747	1.37597	1.37591	1.37461	1.3743	1.37281
293.5 K, x1 = 0.2029	1.38669	1.38364	1.38016	1.3773	1.3758	1.37574	1.37443	1.37411	1.37263
293.5 K, x1 = 0.245	1.3865	1.38325	1.37977	1.37692	1.37541	1.37536	1.37405	1.37374	1.37227
293.5 K, x1 = 0.297	1.38605	1.383	1.37951	1.37666	1.37514	1.37509	1.37378	1.37347	1.372
293.5 K, x1 = 0.2973	1.38627	1.3832	1.37973	1.37687	1.37535	1.3753	1.374	1.3737	1.37222
293.5 K, x1 = 0.3068	1.38571	1.38264	1.37919	1.37631	1.37481	1.37475	1.37345	1.37314	1.37167
293.5 K, x1 = 0.398	1.38461	1.38154	1.37808	1.37522	1.37371	1.37366	1.37236	1.37206	1.37061
293.5 K, x1 = 0.4609	1.38404	1.38098	1.37753	1.37466	1.37315	1.3731	1.3718	1.3715	1.37005
293.5 K, x1 = 0.5434	1.38333	1.38026	1.37682	1.37395	1.37246	1.3724	1.37111	1.37078	1.36934
293.5 K, x1 = 0.6032	1.38277	1.37972	1.37624	1.3734	1.37188	1.37182	1.37052	1.37023	1.36879
293.5 K, x1 = 0.6371	1.3824	1.37934	1.37588	1.37304	1.37152	1.37146	1.37017	1.36988	1.36844
293.5 K, x1 = 0.701	1.38179	1.37873	1.37528	1.37243	1.37093	1.37087	1.36958	1.36928	1.36784
293.5 K, x1 = 0.754	1.38141	1.37834	1.3749	1.37205	1.37055	1.37049	1.3692	1.36891	1.36746
293.5 K, x1 = 0.791	1.38107	1.37802	1.37455	1.37172	1.37022	1.37016	1.36887	1.36857	1.36713
293.5 K, x1 = 0.8296	1.38071	1.37766	1.37423	1.37135	1.36987	1.36982	1.36854	1.36824	1.3668
293.5 K, x1 = 0.8864	1.38051	1.37747	1.374	1.37116	1.36966	1.36961	1.36832	1.36802	1.36658
293.5 K, x1 = 0.8903	1.38011	1.37706	1.37363	1.37076	1.36928	1.36922	1.36795	1.36765	1.3662
293.5 K, x1 = 0.9113	1.37989	1.37684	1.37339	1.37055	1.36905	1.369	1.36771	1.36741	1.36598
293.5 K, x1 = 0.9547	1.37948	1.37645	1.37301	1.37015	1.36866	1.36861	1.36732	1.36702	1.36559
293.5 K, x1 = 0.973	1.37918	1.37614	1.37271	1.36984	1.36836	1.3683	1.36703	1.36673	1.36529
293.5 K, x1 = 0.9771	1.37921	1.37617	1.37274	1.36988	1.36839	1.36834	1.36706	1.36675	1.36532
293.5 K, x1 = 1	1.37888	1.37585	1.37241	1.36955	1.36806	1.36801	1.36674	1.36644	1.36501
298.15 K, x1 = 0.0277	1.38582	1.38277	1.37932	1.37648	1.37498	–	–	–	–
298.15 K, x1 = 0.0507	1.38573	1.38268	1.37925	1.37639	1.37488	–	–	–	–
298.15 K, x1 = 0.051	1.38574	1.38276	1.37929	1.37644	1.37491	–	–	–	–
298.15 K, x1 = 0.0717	1.38551	1.38247	1.37903	1.37618	1.37468	–	–	–	–
298.15 K, x1 = 0.1528	1.38491	1.38186	1.37841	1.37557	1.37406	–	–	–	–
298.15 K, x1 = 0.1553	1.38491	1.38186	1.37841	1.37557	1.37406	–	–	–	–
298.15 K, x1 = 0.1938	1.38463	1.38158	1.37814	1.3753	1.37379	–	–	–	–
298.15 K, x1 = 0.2029	1.38436	1.38132	1.37787	1.37502	1.37351	–	–	–	–
298.15 K, x1 = 0.245	1.38392	1.38088	1.37746	1.37462	1.37311	–	–	–	–
298.15 K, x1 = 0.297	1.38349	1.38044	1.377	1.37426	1.37265	–	–	–	–
298.15 K, x1 = 0.2973	1.38372	1.38067	1.37725	1.37439	1.37289	–	–	–	–
298.15 K, x1 = 0.3068	1.38326	1.38023	1.37678	1.37394	1.37243	–	–	–	–
298.15 K, x1 = 0.398	1.38211	1.37907	1.37562	1.37278	1.37127	–	–	–	–
298.15 K, x1 = 0.4609	1.3815	1.37845	1.37502	1.37217	1.37067	–	–	–	–
298.15 K, x1 = 0.5434	1.38067	1.37764	1.3742	1.37135	–	–	–	–	–
298.15 K, x1 = 0.6032	1.3801	1.37707	1.37364	1.3708	–	–	–	–	–
298.15 K, x1 = 0.6371	1.37972	1.37669	1.37328	1.37042	–	–	–	–	–
298.15 K, x1 = 0.701	1.37906	1.37604	1.37261	1.36978	–	–	–	–	–
298.15 K, x1 = 0.754	1.37868	1.37567	1.37225	1.3694	–	–	–	–	–
298.15 K, x1 = 0.791	1.3783	1.37529	1.37188	1.36903	–	–	–	–	–
298.15 K, x1 = 0.8296	1.37799	1.37498	1.37154	1.36872	–	–	–	–	–
298.15 K, x1 = 0.8864	1.37775	1.37471	1.37132	1.36847	–	–	–	–	–
298.15 K, x1 = 0.8903	1.37734	1.37434	1.3709	1.36807	–	–	–	–	–
298.15 K, x1 = 0.9113	1.37711	1.37411	1.37068	1.36785	–	–	–	–	–
298.15 K, x1 = 0.9547	1.37676	1.37367	1.37025	1.36742	–	–	–	–	–
298.15 K, x1 = 0.973	1.37634	1.37334	1.36994	1.3671	–	–	–	–	–
298.15 K, x1 = 0.9771	1.37629	1.3733	1.36986	1.36704	–	–	–	–	–
298.15 K, x1 = 1	1.37607	1.37308	1.36965	1.36683	–	–	–	–	–
